≈ marks a conversion by molar mass, not a printed value.
Columns and labels:
K. pneumoniae [1] = experiment: M.I.C. by Tube Dilution in Nutrient Broth (Examples 1 and 2); type: cell-based; conditions: Klebsiella pneumoniae
Source text: (§1) | **Dilution of overnight broth culture

Ent. cloacae = experiment: as above; type: cell-based; conditions: Enterobacter cloacae
Source text: as §1

Ser. marcescens = experiment: as above; type: cell-based; conditions: Serratia marcescens; Ser. marcescens A20019 (10^-4)
Source text: as §1

Ps. aeruginosa = experiment: as above; type: cell-based; conditions: Pseudomonas aeruginosa
Source text: as §1

Sal. enteritidis = experiment: as above; type: cell-based; conditions: Salmonella enterica; Sal. enteritidis A9531 (10 ^4)
Source text: as §1

[2] = Stability in solution, 0.005 M phosphate buffer pH 7.4, 37° C.; type: physicochemical; conditions: pH 7.4 and 37° C.
Description: Stability in Solution. Stability in solution was determined at 37° C. in 0.005 M phosphate buffer of pH 7.4. […] Residual antibiotic activity was determined periodically over a 24-hour period by a turbidimetric assay procedure or by an antibiotic diffusion technique (cephalothin).

Streptococcus faecalis = experiment: Growth inhibitory activity, antibiotic dilution technique
S. pyogenes [3] = experiment: as above; conditions: Streptococcus pyogenes, read-out: concentration inhibiting all strains
S. aureus [4] = experiment: as above; conditions: 63 strains tested
Str. pneumoniae = experiment: M.I.C. by Tube Dilution in Nutrient Broth (Examples 1 and 2); type: cell-based; conditions: Streptococcus pneumoniae; Str. pneumoniae A9585 (10^-3 dilution of overnight broth culture); 45% Antibiotic Assay Broth + 50% Nutrient Broth + 5% serum
Source text: (§2) *45% Antibiotic Assay Broth + 50% Nutrient Broth + 5% serum
(§3) **Dilution of overnight broth culture

Str. pyogenes = experiment: as above; type: cell-based; conditions: Streptococcus pyogenes; Str. pyogenes A9604 (10^-3); 45% Antibiotic Assay Broth + 50% Nutrient Broth + 5% serum
Source text: as §2, §3

K. pneumoniae [5] = experiment: MIC by Tube Dilution Technique in Nutrient Broth (Example 9 table); type: cell-based; conditions: Klebsiella pneumoniae
Source text: (§4) MIC (mcg./ml.) by Tube Dilution Technique in Nutrient Broth.

P. aeruginosa = experiment: as above; type: cell-based; conditions: Pseudomonas aeruginosa; P. aeruginosa A9843
Source text: as §4

S. pyogenes [6] = experiment: as above; type: cell-based; conditions: Streptococcus pyogenes; Sp-3 S. pyogenes A9604
Source text: as §4

E. coli = experiment: as above; type: cell-based; conditions: Escherichia coli
Source text: as §4

P. mirabilis = experiment: as above; type: cell-based; conditions: Proteus mirabilis; Pm-2 P. mirabilis A9900
Source text: as §4

P. morganii = experiment: as above; type: cell-based; conditions: Morganella morganii; Pg-8 P. morganii A15153
Source text: as §4

S. enteritidis = experiment: as above; type: cell-based; conditions: Salmonella enterica; Se-1 S. enteritidis A9531
Source text: as §4

E. cloacae = experiment: as above; type: cell-based; conditions: Enterobacter cloacae; El-1 E. cloacae A9656
Source text: as §4

S. marcescens = experiment: as above; type: cell-based; conditions: Serratia marcescens; Sm-1 S. marcescens A20019
Source text: as §4

D. pneumoniae = experiment: as above; type: cell-based; conditions: Streptococcus pneumoniae; Dp-4 D. pneumoniae A9585
Source text: as §4

S. aureus [7] = experiment: as above; type: cell-based; conditions: Staphylococcus aureus
Source text: as §4

S. pneumoniae = experiment: Growth inhibitory activity, antibiotic dilution technique; conditions: Streptococcus pneumoniae, read-out: concentration inhibiting all strains
[8] = Solubility in water, buffer or urine; conditions: soluble as Na^+ salt, as Na^+ salt
S. viridans = experiment: Growth inhibitory activity, antibiotic dilution technique; conditions: Streptococcus viridans, read-out: concentration inhibiting all strains

In the case of `NCc1ccccc1CC(=O)N[C@@H]1C(=O)N2C(C(=O)O)=C(CSc3nnnn3CC(=O)O)CS[C@H]12` [Example 1], the MIC (K. pneumoniae [1]; K. pneumoniae A9977 (10^-4)) is reported as 0.13 mg/L (≈ 0.25 µM), the MIC (K. pneumoniae [1]; K. pneumoniae A15130 (10^-4)) is reported as 2 mg/L (≈ 3.85 µM) and the MIC (Ent. cloacae; Ent. cloacae A9657 (10^-4)) is reported as 0.25 mg/L (≈ 0.481 µM). For the same molecule, the MIC (Ent. cloacae; Ent. cloacae A9659 (10^-4)) was 32 mg/L (≈ 61.6 µM), the MIC (Ent. cloacae; Ent. cloacae A9656 (10^-4)) was greater than 125 mg/L and the MIC (Ser. marcescens) was 125 mg/L (≈ 241 µM). It also gave an MIC (Ps. aeruginosa) greater than 125 mg/L, an MIC (Sal. enteritidis) of 0.06 mg/L (≈ 0.115 µM) and a half-life [2] greater than 24 h. For the same molecule, the “susceptibility of Streptococcus faecalis” value (Streptococcus faecalis) was “resistant”, the MIC (S. pyogenes [3]) was 0.5 mg/L (≈ 0.962 µM) and the “number of strains of S. aureus inhibited” value (S. aureus [4]; at 4 mcg./ml.) was 62 strains. For the same molecule, the “number of strains of S. aureus inhibited” value (S. aureus [4]; at 8 mcg./ml.) was 63 strains, the MIC (Str. pneumoniae) was 0.13 mg/L and the MIC (Str. pyogenes) was 0.13 mg/L. For the same molecule, the MIC (K. pneumoniae [5]; Kp-3 K. pneumoniae A9977) was 0.2 mg/L (≈ 0.385 µM), the MIC (K. pneumoniae [5]; Kp-4 K. pneumoniae A15130) was 1.6 mg/L (≈ 3.08 µM) and the MIC (P. aeruginosa) was greater than 100 mg/L. It also gave an MIC (S. pyogenes [6]) of 0.16 mg/L (≈ 0.308 µM), an MIC (E. coli; Ec-1 E. coli NIHJ) of 0.8 mg/L (≈ 1.54 µM) and an MIC (E. coli; Ec-3 E. coli Juhl A15119) of 0.8 mg/L (≈ 1.54 µM). For the same molecule, the MIC (E. coli; Ec-58 E. coli A9675) was 6.3 mg/L (≈ 12.1 µM), the MIC (P. mirabilis) was 0.4 mg/L (≈ 0.77 µM) and the MIC (P. morganii) was 6.3 mg/L (≈ 12.1 µM). For the same molecule, the MIC (S. enteritidis) was 0.2 mg/L (≈ 0.385 µM), the MIC (E. cloacae) was 50 mg/L (≈ 96.2 µM) and the MIC (S. marcescens) was greater than 100 mg/L. The MIC (D. pneumoniae) was 0.16 mg/L (≈ 0.308 µM), the MIC (S. aureus [7]; Sa-2 S. aureus +50% serum) was greater than 3.1 mg/L and the MIC (S. aureus [7]; Sa-2 S. aureus Smith A9537) was 3.1 mg/L (≈ 5.97 µM). For the same molecule, the MIC (S. aureus [7]; Sa-11 S. aureus BX-1633 A9606) was 3.1 mg/L (≈ 5.97 µM), the MIC (S. aureus [7]; Sa-44 S. aureus A15097) was 6.3 mg/L (≈ 12.1 µM) and the MIC (S. pneumoniae) was 0.25 mg/L (≈ 0.481 µM). It also gave a solubility [8] of no less than 250 mg/mL and an MIC (S. viridans) of 4 mg/L (≈ 7.7 µM).

Reference: patent publication US4100346A, “Certain 7(o-amino-methyl- or methylaminomethylphenyl- or cyclohexadienyl- or thienylacetamide)-3[1-carboxymethyl-(or ethyl- or propyl-)-tetrazol-5-ylthiomethyl]-3-cephem-4-carboxylic acids” (Bristol-Myers Company, priority 1976, dated 1978)
